Assays:
[1] = tested on: untreated prehypertensive males and females; assay: 24-hour ambulatory blood pressure and heart rate (peripheral BP at the brachial artery), randomised controlled cross-over study; assay type: in vivo, humans; conditions: for some time after ingestion
Protocol: In a randomised controlled cross-over study with 42 untreated prehypertensive males and females the effect of cocoa-containing drinks either high in polyphenols or high in polyphenols and theobromine was assessed on blood pressure (BP).
The subjects consumed for 3 weeks daily (in the morning before breakfast) 200 ml acidified dairy drink as in table 1, with added to that 1) none (control drink), 2) 3.65 g cocoa powder (Acticoa, Barry-Callebaut) containing 500 mg polyphenols and 79 mg theobromine (amount in product specification Acticoa) and 3) 5 g cocoa powder containing 500 mg polyphenols and 79 mg theobromine plus added thereto 918 mg pure theobromine (Fagron, Ph. […]
Peripheral BP was measured by 24-hours ambulatory BP at the brachial artery, while central blood pressure was measured by applanation tonometry at the radial artery, using a transfer function to estimate central pulse wave forms, systolic and diastolic BP (SBP and DBP, respectively), pulse pressure (SBP-DBP) and augmentation index. […]
An automatic ambulatory BP monitor (Spacelabs 90207, Spacelabs In., Redmond, Wash., USA) was placed on the non-dominant arm in all subjects. Systolic and diastolic BP and heart rate (HR) were recorded over at least 24 h. […]
Baseline data was expressed as mean plus standard deviation for variables with a parametric distribution and median plus range for variables with a skewed distribution. […]

[2] = tested on: untreated prehypertensive males and females; assay: Central blood pressure by applanation tonometry at the radial artery (pulse wave analysis), randomised controlled cross-over study; assay type: in vivo, humans
Protocol: In a randomised controlled cross-over study with 42 untreated prehypertensive males and females the effect of cocoa-containing drinks either high in polyphenols or high in polyphenols and theobromine was assessed on blood pressure (BP). The subjects consumed for 3 weeks daily (in the morning before breakfast) 200 ml acidified dairy drink as in table 1, with added to that 1) none (control drink), 2) 3.65 g cocoa powder (Acticoa, Barry-Callebaut) containing 500 mg polyphenols and 79 mg theobromine (amount in product specification Acticoa) and 3) 5 g cocoa powder containing 500 mg polyphenols and 79 mg theobromine plus added thereto 918 mg pure theobromine (Fagron, Ph. […] Peripheral BP was measured by 24-hours ambulatory BP at the brachial artery, while central blood pressure was measured by applanation tonometry at the radial artery, using a transfer function to estimate central pulse wave forms, systolic and diastolic BP (SBP and DBP, respectively), pulse pressure (SBP-DBP) and augmentation index. […] Augmentation index (AIx), defined as the ratio of augmentation to central pulse pressure, is expressed as a percentage: AIx=(ΔP/PP)×100, where P is pressure and PP is pulse pressure. […] Pulse pressure amplification (PPA) is expressed as the ratio of […]: PPA=PPP/CPP. […]

Cn1cnc2c1c(=O)[nH]c(=O)n2C [theobromine, 3,7-dimethylxanthine]
heart rate after ingestion of the effective amount (in words) [1]: elevated | peripheral BP after ingestion of the effective amount (in words) [1]: elevated | reduction of central blood pressure compared to when theobromine is not ingested ([2]; ingestion in an effective amount): at least 2 mmHg | reduction of central BP ([2]; single daily dose of 1000 mg theobromine, p=0.003): 3.3%

— patent US20130052280A1, “USE OF THEBROMINE FOR LOWERING CENTRAL BLOOD PRESSURE” (priority 2010, published 2013)
